What was measured:
HEK-293 cells = experiment: HEK-293 cytotoxicity detection (CellTiter-Glo); format: cell-based; conditions: Homo sapiens, 72 h, 72 h incubation, CellTiter-Glo luminescence, read-out: HEK293
In short: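 HEK-293 cells exposed 72 h to 8 compounds doses (4-fold dilutions, top stock 5 mM at 500×) in 0.2% DMSO. Viability by CellTiter-Glo luminescence; inhibition normalised to DMSO high control and low control, IC50 from four-parameter curve fit.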

BTK = BTK (Homo sapiens, UniProt Q06187); experiment: BTK cell degradation in TMD-8 cells, HTRF assay; format: cell-based; design: endogenous in cells; host or cells: TMD-8 cells; conditions: 6 h treatment, IC50 (DC50) of BTK degradation
In short: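 BTK levels read by HTRF in lysates of TMD-8 cells exposed to compounds for 6 h, eight concentrations at 6-fold steps in 0.2% DMSO. Percent degradation versus DMSO and low controls was fitted with a four-parameter equation to give DC50; Dmax is maximal degradation.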

Chain of BTK (Q06187 whole entry): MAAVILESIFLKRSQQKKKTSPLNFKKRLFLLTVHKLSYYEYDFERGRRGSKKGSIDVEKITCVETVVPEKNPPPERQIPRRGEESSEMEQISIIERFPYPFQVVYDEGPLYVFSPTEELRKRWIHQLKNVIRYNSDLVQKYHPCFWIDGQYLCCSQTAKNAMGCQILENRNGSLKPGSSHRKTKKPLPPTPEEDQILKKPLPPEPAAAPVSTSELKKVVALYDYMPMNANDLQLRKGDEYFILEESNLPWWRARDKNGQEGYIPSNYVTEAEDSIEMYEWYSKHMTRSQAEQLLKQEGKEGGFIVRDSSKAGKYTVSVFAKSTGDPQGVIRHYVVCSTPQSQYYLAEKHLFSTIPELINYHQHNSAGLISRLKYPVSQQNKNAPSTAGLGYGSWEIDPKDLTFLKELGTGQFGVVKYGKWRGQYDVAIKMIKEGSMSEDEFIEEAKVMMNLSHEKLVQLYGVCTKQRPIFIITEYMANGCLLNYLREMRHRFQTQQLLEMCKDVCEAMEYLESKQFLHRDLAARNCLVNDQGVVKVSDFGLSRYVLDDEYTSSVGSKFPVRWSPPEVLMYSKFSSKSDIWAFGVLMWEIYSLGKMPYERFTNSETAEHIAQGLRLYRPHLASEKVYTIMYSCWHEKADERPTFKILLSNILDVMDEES

Compound | IC50 (HEK-293 cells) | DC50 (BTK)
Cc1cccc(NC(=O)c2ccc(-c3nn4c(c3C(N)=O)Nc3ccc(N5CCN(C6CC(c7ccc(N8CCC(=O)NC8=O)cc7)C6)CC5)cc3CC4)c(F)c2C)n1 (stereo not drawn) [Example B64, 7-(4-(3-(4-(2,4-dioxotetrahydropyrimidin-1(2H)-yl)phenyl)cyclobutyl)piperazin-1-yl)-2-(2-fluoro-3-methyl-4-((6-methylpyridin-2-yl)carbamoyl)phenyl)-9,10-dihydro-4H-benzo[d]pyrazolo[1,5-a][1,3]diazepine-3-carboxamide] | > 10000 nM | 4.85 nM
CCc1cccc(NC(=O)c2ccc(-c3nn4c(c3C(N)=O)Nc3ccc(N5CCN(CC6CCN(c7ccc(N8CCC(=O)NC8=O)cc7)CC6)CC5)cc3CC4)c(F)c2C)n1 [Example B41, 7-(4-((1-(4-(2,4-dioxotetrahydropyrimidin-1(2H)-yl)phenyl)piperidin-4-yl)methyl)piperazin-1-yl)-2-(4-((6-ethylpyridin-2-yl)carbamoyl)-2-fluoro-3-methylphenyl)-9,10-dihydro-4H-benzo[d]pyrazolo[1,5-a][1,3]diazepine-3-carboxamide] | > 10000 nM | 9.26 nM
Cc1cccc(NC(=O)c2ncc(-c3nn4c(c3C(N)=O)Nc3ccc(N5CCN(CCc6cc(F)c(C7CCC(=O)NC7=O)c(F)c6)CC5)cc3CC4)cc2C)n1 (stereo not drawn) [Example B33, 7-(4-(4-(2,6-dioxopiperidin-3-yl)-3,5-difluorophenethyl)piperazin-1-yl)-2-(5-methyl-6-((6-methylpyridin-2-yl)carbamoyl)pyridin-3-yl)-9,10-dihydro-4H-benzo[d]pyrazolo[1,5-a][1,3]diazepine-3-carboxamide] | 400 nM | 17.6 nM
Cc1c(C(=O)Nc2nc(C(F)(F)F)n[nH]2)ccc(-c2nn3c(c2C(N)=O)Nc2ccc(N4CCN(CC5CCN(c6ccc(N7CCC(=O)NC7=O)cc6)CC5)CC4)cc2CC3)c1F [Example B85, 7-(4-((1-(4-(2,4-dioxotetrahydropyrimidin-1(2H)-yl)phenyl)piperidin-4-yl)methyl)piperazin-1-yl)-2-(2-fluoro-3-methyl-4-((3-(trifluoromethyl)-1H-1,2,4-triazol-5-yl)carbamoyl)phenyl)-9,10-dihydro-4H-benzo[d]pyrazolo[1,5-a][1,3]diazepine-3-carboxamide] | > 10000 nM | 1.87 nM
Cc1cccc(NC(=O)c2ccc(-c3nn4c(c3C(N)=O)Nc3ccc(N5CCN(CC6CCN(c7ccc(N8CCC(=O)NC8=O)cc7)CC6)CC5)cc3CC4)c(Cl)c2)n1 [Example B20, 2-(2-chloro-4-((6-methylpyridin-2-yl)carbamoyl)phenyl)-7-(4-((1-(4-(2,4-dioxotetrahydropyrimidin-1(2H)-yl)phenyl)piperidin-4-yl)methyl)piperazin-1-yl)-9,10-dihydro-4H-benzo[d]pyrazolo[1,5-a][1,3]diazepine-3-carboxamide] | > 10000 nM | 0.469 nM
Cc1ccnc(NC(=O)c2ccc(-c3nn4c(c3C(N)=O)Nc3ccc(N5CCN(CC6CCN(c7ccc(N8CCC(=O)NC8=O)cc7)CC6)CC5)cc3CC4)c(F)c2C)n1 [Example B43, 7-(4-((1-(4-(2,4-dioxotetrahydropyrimidin-1(2H)-yl)phenyl)piperidin-4-yl)methyl)piperazin-1-yl)-2-(2-fluoro-3-methyl-4-((4-methylpyrimidin-2-yl)carbamoyl)phenyl)-9,10-dihydro-4H-benzo[d]pyrazolo[1,5-a][1,3]diazepine-3-carboxamide] | > 10000 nM | 0.543 nM
COc1ccc(F)cc1C(=O)NCc1ccc(-c2nn3c(c2C(N)=O)Nc2ccc(N4CCN(CC5CCN(c6ccc(N7CCC(=O)NC7=O)cc6)CC5)CC4)cc2CC3)cc1 [Example C3, 7-(4-((1-(4-(2,4-dioxotetrahydropyrimidin-1(2H)-yl)phenyl)piperidin-4-yl)methyl)piperazin-1-yl)-2-(4-((5-fluoro-2-methoxybenzamido)methyl)phenyl)-9,10-dihydro-4H-benzo[d]pyrazolo[1,5-a][1,3]diazepine-3-carboxamide] | > 10000 nM | 0.343 nM
Cc1c(C(=O)Nc2ncnn2C)ccc(-c2nn3c(c2C(N)=O)Nc2ccc(N4CCN(CC5CCN(c6ccc(N7CCC(=O)NC7=O)cc6)CC5)CC4)cc2CC3)c1F [Example B93, 7-(4-((1-(4-(2,4-dioxotetrahydropyrimidin-1(2H)-yl)phenyl)piperidin-4-yl)methyl)piperazin-1-yl)-2-(2-fluoro-3-methyl-4-((1-methyl-1H-1,2,4-triazol-5-yl)carbamoyl)phenyl)-9,10-dihydro-4H-benzo[d]pyrazolo[1,5-a][1,3]diazepine-3-carboxamide] | > 10000 nM | 3.77 nM
NC(=O)c1c(-c2ccc(C(=O)Nc3cccc(C(F)(F)F)n3)cc2)nn2c1Nc1ccc(N3CCN(CC4CCN(c5ccc(N6CCC(=O)NC6=O)cc5)CC4)CC3)cc1CC2 [Example B16, 7-(4-((1-(4-(2,4-dioxotetrahydropyrimidin-1(2H)-yl)phenyl)piperidin-4-yl)methyl)piperazin-1-yl)-2-(4-((6-(trifluoromethyl)pyridin-2-yl)carbamoyl)phenyl)-9,10-dihydro-4H-benzo[d]pyrazolo[1,5-a][1,3]diazepine-3-carboxamide] | 232 nM | 1.32 nM
COc1ccc(C)cc1C(=O)NCc1ccc(-c2nn3c(c2C(N)=O)Nc2ccc(N4CCN(CC5CCN(c6ccc(N7CCC(=O)NC7=O)cc6)CC5)CC4)cc2CC3)cc1 [Example C2, 7-(4-((1-(4-(2,4-dioxotetrahydropyrimidin-1(2H)-yl)phenyl)piperidin-4-yl)methyl)piperazin-1-yl)-2-(4-((2-methoxy-5-methylbenzamido)methyl)phenyl)-9,10-dihydro-4H-benzo[d]pyrazolo[1,5-a][1,3]diazepine-3-carboxamide] | > 10000 nM | 0.52 nM
NC(=O)c1c(-c2ccc(Oc3ccccc3)cc2)nn2c1Nc1ccc(OCCC3CCN(c4ccc(N5CCC(=O)NC5=O)cc4)CC3)cc1CC2 [Example A24, 7-(2-(1-(4-(2,4-dioxotetrahydropyrimidin-1(2H)-yl)phenyl)piperidin-4-yl)ethoxy)-2-(4-phenoxyphenyl)-9,10-dihydro-4H-benzo[d]pyrazolo[1,5-a][1,3]diazepine-3-carboxamide] | 235 nM | 9.26 nM
COc1ccccc1C(=O)N[C@H](C)c1ccc(-c2nn3c(c2C(N)=O)Nc2ccc(N4CCN(CC5CCN(c6ccc(N7CCC(=O)NC7=O)cc6)CC5)CC4)cc2CC3)cc1 [Example C14, (R)-7-(4-((1-(4-(2,4-dioxotetrahydropyrimidin-1(2H)-yl)phenyl)piperidin-4-yl)methyl)piperazin-1-yl)-2-(4-(1-(2-methoxybenzamido)ethyl)phenyl)-9,10-dihydro-4H-benzo[d]pyrazolo[1,5-a][1,3]diazepine-3-carboxamide] | > 10000 nM | 2.76 nM
Cc1c(C(=O)Nc2cscn2)ccc(-c2nn3c(c2C(N)=O)Nc2ccc(N4CCN(CC5CCN(c6ccc(N7CCC(=O)NC7=O)cc6)CC5)CC4)cc2CC3)c1F [Example B94, 7-(4-((1-(4-(2,4-dioxotetrahydropyrimidin-1(2H)-yl)phenyl)piperidin-4-yl)methyl)piperazin-1-yl)-2-(2-fluoro-3-methyl-4-(thiazol-4-ylcarbamoyl)phenyl)-9,10-dihydro-4H-benzo[d]pyrazolo[1,5-a][1,3]diazepine-3-carboxamide] | > 10000 nM | 0.378 nM
COc1ccc(C(F)(F)F)cc1C(=O)NCc1ccc(-c2nn3c(c2C(N)=O)Nc2ccc(N4CCN(CC5CCN(c6ccc(N7CCC(=O)NC7=O)cc6)CC5)CC4)cc2CC3)cc1F [Example C26, 7-(4-((1-(4-(2,4-dioxotetrahydropyrimidin-1(2H)-yl)phenyl)piperidin-4-yl)methyl)piperazin-1-yl)-2-(3-fluoro-4-((2-methoxy-5-(trifluoromethyl)benzamido)methyl)phenyl)-9,10-dihydro-4H-benzo[d]pyrazolo[1,5-a][1,3]diazepine-3-carboxamide] | 108 nM | 1.79 nM
Cc1cccc(NC(=O)c2ccc(-c3nn4c(c3C(N)=O)Nc3ccc(N5CCN(CC6CCN(c7ccc(N8CCC(=O)NC8=O)c(C)c7)CC6)CC5)cc3CC4)c(F)c2C)n1 [Example B54, 7-(4-((1-(4-(2,4-dioxotetrahydropyrimidin-1(2H)-yl)-3-methylphenyl)piperidin-4-yl)methyl)piperazin-1-yl)-2-(2-fluoro-3-methyl-4-((6-methylpyridin-2-yl)carbamoyl)phenyl)-9,10-dihydro-4H-benzo[d]pyrazolo[1,5-a][1,3]diazepine-3-carboxamide] | > 10000 nM | 3.75 nM
